Experimental data published in paper PMC6982996, “Discovery of [1,2,4]Triazole Derivatives as New Metallo-β-Lactamase Inhibitors” (Molecules, 2019).
Where two headings read alike, the source gives them in different places.

How the values were obtained:
KPC-2 = target: T1, KPC-2 (Klebsiella pneumoniae, UniProt Q9F663); assay: KPC-2 SBL inhibition assay (counter screen); type: biochemical; details: mean ± SD (n = 3)
T1 construct: Li's Laboratory, Sichuan University (collaborator, a gift and not a purchase)
Method: (§1) Considering that MBLs and SBLs are two catalogs of β-lactamases, we further tested the compound 5l against some representative SBL enzymes, including KPC-2 (Klebsiella pneumoniae carbapenemase 2), TEM-1, AmpC, and OXA-48 (Oxacillinase 48), with the aim of investigating its selectivity; particularly, this is used as a counter screening to indicate the specific inhibition to MBLs. […] […].
(§2) All the target compounds were freshly prepared in 100 mM DMSO stock solutions. All the MBL and SBL enzymes used in this study were obtained from our collaborator, Li’s Laboratory in Sichuan University. Each compound was initially evaluated for inhibitory activity to MBL and SBL enzymes at 100 and 10 μM, by preincubation with the appropriate amount of enzymes in the assay buffer for 10 min, followed by adding the substrate FC5 to initiate the reactions, and monitoring the fluorescence at λex of 380 nm and λem of 460 nm. The IC50 values for the compounds (with 10 different concentrations in threefold dilution) were further determined. All determinations were tested in triplicate. The IC50 values were obtained from the plot of activity versus inhibitor concentration by using the GraphPad Prism software.

VIM-2 [1] = target: T2, VIM-2 (Escherichia coli, UniProt Q5U7L7); assay: VIM-2 inhibition assay (FC5 fluorogenic substrate); type: biochemical; details: for inhibition at 10 µM / inhibition at 100 µM: mean ± SD (n = 3)
T2 construct: Li's Laboratory, Sichuan University (collaborator, a gift and not a purchase)
Method: as §2

NDM-1 [2] = target: T3, NDM-1 (Klebsiella pneumoniae, UniProt C7C422); assay: NDM-1 inhibition assay (FC5 fluorogenic substrate); type: biochemical; details: mean ± SD (n = 3)
T3 construct: Li's Laboratory, Sichuan University (collaborator, a gift and not a purchase)
Method: (§3) Then, we tested all the target compounds against other B1 MBL enzymes, including NDM-1, IMP-1, VIM-1, and VIM-5 (Table 1); all the assay conditions (including enzyme/substrate concentrations) are the same as that previously used. […]. […].
as §2

OXA-48 = target: T4, OXA-48 (Klebsiella pneumoniae, UniProt Q6XEC0); assay: OXA-48 SBL inhibition assay (counter screen); type: biochemical
T4 construct: Li's Laboratory, Sichuan University (collaborator, a gift and not a purchase)
Method: as §1, §2

VIM-1 = target: T5, VIM-1 (Pseudomonas aeruginosa, UniProt A0A0F7KYQ8); assay: VIM-1 inhibition assay (FC5 fluorogenic substrate); type: biochemical; details: @ 100 μM; mean ± SD (n = 3)
T5 construct: Li's Laboratory, Sichuan University (collaborator, a gift and not a purchase)
Method: as §3, §2

VIM-5 = VIM-5 inhibition assay (FC5 fluorogenic substrate); type: biochemical; details: @ 100 μM; mean ± SD (n = 3)
Method: as §3, §2

TEM-1 = target: T6, TEM-1 (Escherichia coli, UniProt P62593); assay: TEM-1 SBL inhibition assay (counter screen); type: biochemical; details: mean ± SD (n = 3)
T6 construct: Li's Laboratory, Sichuan University (collaborator, a gift and not a purchase)
Method: (§4) Considering that MBLs and SBLs are two catalogs of β-lactamases, we further tested the compound 5l against some representative SBL enzymes, including KPC-2 (Klebsiella pneumoniae carbapenemase 2), TEM-1, AmpC, and OXA-48 (Oxacillinase 48), with the aim of investigating its selectivity; particularly, this is used as a counter screening to indicate the specific inhibition to MBLs.
as §2

AmpC = AmpC SBL inhibition assay (counter screen); type: biochemical; details: 10 μM; mean ± SD (n = 3)
Method: as §4, §2

VIM-2 [3] = target: T2, VIM-2
NDM-1 [4] = target: T3, NDM-1; details: Figure 1, reported inhibitors; read-out: NDM-1 IC50 (reported MBL inhibitors); cited from earlier work
B3 L1 MBL = test system: B3 L1 MBL; design: method as in PMID 17999929, PMID 20625539, PMID 25893049; details: Figure 1, reported inhibitor; read-out: L1 IC50 (reported MBL inhibitors); cited from earlier work
IMP-1 [5] = target: T7, IMP-1 (Serratia marcescens, UniProt P52699); details: Figure 1, reported inhibitors; read-out: IMP-1 IC50 (reported MBL inhibitors); cited from earlier work
T7 construct: Li's Laboratory, Sichuan University (collaborator, a gift and not a purchase)

CfiA = details: Figure 1, reported natural product; read-out: CfiA IC50 (reported MBL inhibitors); cited from earlier work
IMP-1 [6] = target: T7, IMP-1; assay: IMP-1 inhibition assay (FC5 fluorogenic substrate); type: biochemical; details: mean ± SD (n = 3)
Method: as §3, §2

[7] = Figure 1, reported inhibitors; read-out: VIM-2 IC50 (reported MBL inhibitors); cited from earlier work

T4 sequence (Q6XEC0 23-265 limits assumed): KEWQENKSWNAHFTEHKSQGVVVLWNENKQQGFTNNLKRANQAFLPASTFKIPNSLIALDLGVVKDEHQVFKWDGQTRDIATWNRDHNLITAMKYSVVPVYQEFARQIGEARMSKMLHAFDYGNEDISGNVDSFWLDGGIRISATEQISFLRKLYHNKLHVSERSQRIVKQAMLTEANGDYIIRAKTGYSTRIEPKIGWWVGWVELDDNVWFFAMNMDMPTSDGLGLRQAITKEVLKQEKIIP
T7 sequence (P52699 19-246 limits assumed): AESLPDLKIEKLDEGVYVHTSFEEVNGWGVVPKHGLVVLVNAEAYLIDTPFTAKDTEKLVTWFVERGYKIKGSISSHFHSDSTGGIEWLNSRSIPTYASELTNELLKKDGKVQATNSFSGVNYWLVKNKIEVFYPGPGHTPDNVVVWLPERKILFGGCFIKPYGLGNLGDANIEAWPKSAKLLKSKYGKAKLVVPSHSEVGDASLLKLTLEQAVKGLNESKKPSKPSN
T1 sequence (Q9F663 25-293, looked up): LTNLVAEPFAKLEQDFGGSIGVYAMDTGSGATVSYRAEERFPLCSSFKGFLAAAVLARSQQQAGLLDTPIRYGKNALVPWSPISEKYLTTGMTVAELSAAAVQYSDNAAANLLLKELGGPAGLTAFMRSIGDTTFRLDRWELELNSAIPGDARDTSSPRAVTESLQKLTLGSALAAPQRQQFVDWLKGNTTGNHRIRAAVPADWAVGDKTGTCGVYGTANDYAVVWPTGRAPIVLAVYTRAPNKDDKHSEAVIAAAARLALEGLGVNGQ
T6 sequence (P62593 24-286 limits assumed): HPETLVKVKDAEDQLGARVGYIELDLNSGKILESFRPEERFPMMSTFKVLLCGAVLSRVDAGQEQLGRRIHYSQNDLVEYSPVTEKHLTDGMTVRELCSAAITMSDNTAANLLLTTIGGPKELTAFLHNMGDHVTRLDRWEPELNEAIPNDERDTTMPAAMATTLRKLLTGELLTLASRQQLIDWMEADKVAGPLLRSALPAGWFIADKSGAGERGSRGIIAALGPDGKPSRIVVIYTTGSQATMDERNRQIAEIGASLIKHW
T3 sequence (C7C422 29-270, looked up, species assumed): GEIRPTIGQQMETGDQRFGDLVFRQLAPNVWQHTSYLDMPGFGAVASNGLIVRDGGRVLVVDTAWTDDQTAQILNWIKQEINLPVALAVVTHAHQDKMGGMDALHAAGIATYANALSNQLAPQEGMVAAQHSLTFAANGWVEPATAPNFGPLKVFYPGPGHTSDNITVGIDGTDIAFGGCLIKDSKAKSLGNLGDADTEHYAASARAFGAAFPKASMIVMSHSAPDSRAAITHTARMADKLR

Structure (SMILES): Brc1ccc(-c2nnc3n2CCCS3)cc1 [5l, 3-(4-Bromophenyl)-6,7-dihydro-5H-[1,2,4]triazolo[3,4-b][1,3]thiazine]
- inhibition at 10 µM (KPC-2; 10 μM): 2 ± 1%
- Inhibition % KPC-2 (KPC-2; 100 μM): No or low inhibitory activities
- inhibition at 100 µM (KPC-2; 100 μM): 8 ± 2%
- IC50 (VIM-2 [1]; 10 concentrations in threefold dilution, triplicate, read-out: IC50 against VIM-2): 38.4 µM
- inhibition at 10 µM (VIM-2 [1]): 53%
- inhibition at 100 µM (VIM-2 [1]): 86 ± 5%
- inhibition at 10 µM (NDM-1 [2]): 10%
- inhibition at 100 µM (NDM-1 [2]): 8 ± 1%
- Inhibition % OXA-48 (OXA-48; 100 μM, mean ± SD (n = 3)): No or low inhibitory activities
- inhibition at 10 µM (OXA-48; read-out: Inhibition % OXA-48): 7 ± 1%
- inhibition at 100 µM (OXA-48; read-out: Inhibition % OXA-48): 17 ± 2%
- inhibition at 100 µM (VIM-1): 23 ± 1%
- Inhibition % VIM-5 (VIM-5): 33 ± 2/– %
- inhibition at 10 µM (TEM-1; 10 μM): 9 ± 1%
- Inhibition % TEM-1 (TEM-1; 100 μM): No or low inhibitory activities
- inhibition at 100 µM (TEM-1; 100 μM): 20 ± 3%
- Inhibition % AmpC (AmpC): 13 ± 2%

Structure (SMILES): C[C@H](CS)C(=O)N[C@@H](Cc1coc2ccccc12)B(O)O [III]
- IC50 (VIM-2 [3]; [7]): 0.44 µM
- IC50 (NDM-1 [4]): 37.9 µM

Structure (SMILES): C[C@H](CS)C(=O)N[C@@H](C(=O)O)c1ccc(O)cc1 [II]
- IC50 (VIM-2 [3]; [7]): 0.0137 µM
- IC50 (NDM-1 [4]): 3.57 µM

Structure (SMILES): O=C(CSc1nnc(-c2ccccc2C(=O)O)[nH]1)Nc1nc2ccccc2s1 [IV]
- Ki (VIM-2 [3]; Figure 1, reported inhibitor; read-out: VIM-2 Ki (reported MBL inhibitors); cited from earlier work): 1.2 µM

Structure (SMILES): NCCN[C@H]1CC[C@H](CC(=O)N[C@H]2Cc3cccc(C(=O)O)c3OB2O)CC1 [IX, taniborbactam]
- IC50 (VIM-2 [3]; [7]): 0.0005 µM

Structure (SMILES): Cc1ccccc1-c1nnc(S)n1/N=C/c1ccccc1C(=O)O [V]
- IC50 (B3 L1 MBL): 15 µM

Structure (SMILES): N[C@@H](CN[C@@H](CN[C@@H](CC(=O)O)C(=O)O)C(=O)O)C(=O)O [XI, AMA]
- IC50 (VIM-2 [3]; [7]): 9.6 µM
- IC50 (NDM-1 [4]): 4 µM

Structure (SMILES): O=C(/C=C/c1ccc(O)c(O)c1)O[C@H](Cc1ccc(O)c(O)c1)C(=O)O [XII, Rosmarinic acid]
- IC50 (VIM-2 [3]; read-out: VIM-2 IC50 (reported MBL inhibitors); Figure 1, reported inhibitors; cited from earlier work): 41.5 µM

Structure (SMILES): CO[C@@H]1O[C@@H](C)Cc2oc3cc(O)c(O)c(C(=O)O)c3c(=O)c21 [X]
- IC50 (IMP-1 [5]): 113 µM
- IC50 (CfiA): 29 µM

Structure (SMILES): O=C(O)c1ccccc1-c1nnc2n1C(=O)CS2 [compound 15, 2-(5-Oxo-5,6-dihydrothiazolo[2,3-c][1,2,4]triazol-3-yl)benzoic acid]
- inhibition at 10 µM (VIM-2 [1]): 18%
- inhibition at 100 µM (VIM-2 [1]): 21 ± 2%
- inhibition at 10 µM (NDM-1 [2]): 10%
- inhibition at 100 µM (NDM-1 [2]): 8 ± 1%
- inhibition at 100 µM (VIM-1): 25 ± 2%
- inhibition at 10 µM (IMP-1 [6]; @ 10 μM): 19%
- inhibition at 100 µM (IMP-1 [6]; @ 100 μM): 13 ± 1%
- Inhibition % VIM-5 (VIM-5): 10 ± 2/– %
